These results are taken from patent publication US6545038B1, “Heterocyclic metalloprotease inhibitors” (The Procter & Gamble Company, priority 1996, dated 2003).

This test in a line: Method of use Example B: daily capsule in a subject suffering from osteoarthritis. In kind it is in vivo. As to conditions: human male, capsule containing 70 mg daily for 5 years. As to the method: A human subject weighing 90 kg (198 lbs), suffering from osteoarthritis, is treated by a method of this invention. Specifically, for 5 years, a capsule containing 70 mg of Example 3 is administered daily to said subject.

On to `COc1ccc(S(=O)(=O)N2CCCSC(C)(C)[C@@H]2C(=O)N(C)O)cc1` [Example 3, 3(S)-N-Hydroxy-N-methyl-2,2-dimethyl-4N-[(4-methoxyphenyl)sulfonyl]-thiazepine-3-carboxamide], for which the “erosion/fibrillation of the articular cartilage, examined via orthoscopy” value is reported as “no further advancement of erosion/fibrillation of the articular cartilage”.
